≈ marks a conversion by molar mass, not a printed value.
Tests used:
[1] = Metabolic stability in human liver microsomes at 20 uM assessed as half life measured up to 90 mins by LC-HRMS analysis; type: ADME, Microsome
[2] = Metabolic stability in human liver microsomes at 20 uM assessed as intrinsic clearance measured up to 90 mins by LC-HRMS analysis; type: ADME, Microsome; conditions: read-out: CLH
[3] = tested on: Mycolicibacterium vaccae; assay: Antimycobacterial activity against Mycobacterium vaccae (JMRC:STI:10670) assessed as reduction in bacterial growth incubated for 42 hrs by serial dilution method; type: functional; conditions: Mycolicibacterium vaccae, JMRC:STI:10670, read-out: MIC
[4] = Cytotoxicity against human HeLa cells assessed as reduction in cell viability incubated for 72 hrs by methylene blue staining based colorimetric assay; type: toxicity

Row | SMILES | half-life at 20 µM [1] [min] | microsomal CLint at 20 µM [2] [µL/min/mg] | MIC [3] [µM] | CC50 at 72 h [4] [µM]
1 | N#Cc1cccc(CN2CCN(c3nc(=O)c4cc(C(F)(F)F)cc([N+](=O)[O-])c4s3)CC2)c1 | 60.3 | 23.2 |  | 
2 | CN(C(=O)CN1CCN(c2nc(=O)c3cc(C(F)(F)F)cc([N+](=O)[O-])c3s2)CC1)c1ccccc1 | 88.9 | 15.8 | 0.0061 (≈ 0.0031 µg/mL) | 70.3
3 | O=c1nc(N2CCC(OC3CCN(CC(F)(F)F)CC3)CC2)sc2c([N+](=O)[O-])cc(C(F)(F)F)cc12 | 40.5 | 34.5 | 0.0115 (≈ 0.00622 µg/mL) | > 93
4 | O=c1nc(N2CCN(CC(F)(F)c3ccc(F)c(F)c3)CC2)sc2c([N+](=O)[O-])cc(C(F)(F)F)cc12 | 45.3 | 30.9 |  | 
5 | O=c1nc(N2CCn3cc(-c4ccc(F)cc4)nc3C2)sc2c([N+](=O)[O-])cc(C(F)(F)F)cc12 | 54.6 | 25.7 | 0.0049 (≈ 0.00241 µg/mL) | > 102
6 | N#Cc1ccccc1N1CCN(c2nc(=O)c3cc(C(F)(F)F)cc([N+](=O)[O-])c3s2)CC1 | 99 | 14.1 | 0.0087 (≈ 0.00401 µg/mL) | > 108
7 | O=c1nc(N2CCN(CC(F)(F)F)CC2)sc2c([N+](=O)[O-])cc(C(F)(F)F)cc12 | 103 | 13.5 | 0.007 (≈ 0.0031 µg/mL) | > 113
8 | O=C(O)Cc1ccccc1Nc1c(Cl)cccc1Cl [DICLOFENAC] | 6.3 | 222 |  | 
9 | O=c1nc(N2CC[C@H](c3ccccc3)[C@@H](O)C2)sc2c([N+](=O)[O-])cc(C(F)(F)F)cc12 | 52.5 | 26.7 | 0.0069 (≈ 0.00311 µg/mL) | 73.1
10 | O=c1nc(N2CCN(C(c3ccccc3)C(F)(F)F)CC2)sc2c([N+](=O)[O-])cc(C(F)(F)F)cc12 (stereo not drawn) | 88.9 | 22.4 |  | 
11 | O=C(CN1CCN(c2nc(=O)c3cc(C(F)(F)F)cc([N+](=O)[O-])c3s2)CC1)Nc1ccccc1 |  |  | 0.0253 (≈ 0.0125 µg/mL) | > 101
12 | O=c1nc(N2Cc3ccccc3[C@H](CO)C2)sc2c([N+](=O)[O-])cc(C(F)(F)F)cc12 |  |  | 0.0286 (≈ 0.0125 µg/mL) | 86.4
13 | O=c1nc(N2CCN(Cc3ccc(OC(F)(F)F)cc3)CC2)sc2c([N+](=O)[O-])cc(C(F)(F)F)cc12 | 43.6 | 32.1 |  | 
14 | O=c1nc(N2CCN(CCc3ccccc3)CC2)sc2c([N+](=O)[O-])cc(C(F)(F)F)cc12 |  |  | 0.0172 (≈ 0.00799 µg/mL) | > 108
15 | O=c1nc(N2CC[C@@](O)(c3ccc(F)cc3)[C@H](O)C2)sc2c([N+](=O)[O-])cc(C(F)(F)F)cc12 |  |  | 0.0515 (≈ 0.025 µg/mL) | 66.1
16 | O=c1nc(N2CCC(CCO)CC2)sc2c([N+](=O)[O-])cc(C(F)(F)F)cc12 |  |  | 0.992 (≈ 0.4 µg/mL) | 91.5
17 | COc1ccc2c(c1)CN(c1nc(=O)c3cc(C(F)(F)F)cc([N+](=O)[O-])c3s1)C2 |  |  | 0.0591 (≈ 0.025 µg/mL) | > 118
18 | COc1cc(OC)cc(N2CCN(c3nc(=O)c4cc(C(F)(F)F)cc([N+](=O)[O-])c4s3)CC2)c1 |  |  | 0.0624 (≈ 0.031 µg/mL) | > 101
19 | O=C(CN1CCN(c2nc(=O)c3cc(C(F)(F)F)cc([N+](=O)[O-])c3s2)CC1)N1CCCC1 |  |  | 0.0658 (≈ 0.031 µg/mL) | > 106
20 | CN1CCC(CCCC2CCN(c3nc(=O)c4cc(C(F)(F)F)cc([N+](=O)[O-])c4s3)CC2)CC1 |  |  | 0.124 (≈ 0.0618 µg/mL) | 20.1
21 | O=c1nc(N2CCC(c3ccc(CO)cc3)CC2)sc2c([N+](=O)[O-])cc(C(F)(F)F)cc12 |  |  | 0.0537 (≈ 0.025 µg/mL) | 19.6
22 | CN(CC1(CO)CCCC1)c1nc(=O)c2cc(C(F)(F)F)cc([N+](=O)[O-])c2s1 |  |  | 0.0599 (≈ 0.025 µg/mL) | > 120
23 | O=C(CN1CCN(c2nc(=O)c3cc(C(F)(F)F)cc([N+](=O)[O-])c3s2)CC1)NCCc1ccccc1 |  |  | 0.479 (≈ 0.25 µg/mL) | 87.8
